# Measured values as given in publication PMC7673538 (PLoS Biology, 2020).
# Tested on: EV-A71
# Assay: microbe, parasite or virus in culture
# Type: cell-based, enterovirus A71
# Details: Enterovirus A, EVA71, HeLa R19, read-out: EC50 EV-A71
row,Structure (SMILES),EC50 [µM]
1,"COc1ccc(N(Cc2ccc(F)cc2)C(=O)c2ccccn2)cc1 [Compound 5e, N-(4-fluorobenzyl)-N-(4-methoxyphenyl)picolinamide]",> 30

# Tested on: CV-B3
# Assay: microbe, parasite or virus in culture
# Type: cell-based, coxsackievirus B3
# Details: Enterovirus B, CVB3, HeLa R19, read-out: CV-B3 EC50 Average
row,Structure (SMILES),EC50 [µM]
1,"COc1ccc(N(Cc2ccc(F)cc2)C(=O)c2ccccn2)cc1 [Compound 5e, N-(4-fluorobenzyl)-N-(4-methoxyphenyl)picolinamide]",6.44

# Same assay, conditions: Enterovirus B, CVB3, HeLa R19, read-out: CV-B3 Exp 1 EC50
row,Structure (SMILES),EC50 [µM]
1,"COc1ccc(N(Cc2ccc(F)cc2)C(=O)c2ccccn2)cc1 [Compound 5e, N-(4-fluorobenzyl)-N-(4-methoxyphenyl)picolinamide]",6.02

# Same assay, conditions: Enterovirus B, CVB3, HeLa R19, read-out: CV-B3 Exp2 EC50
row,Structure (SMILES),EC50 [µM]
1,"COc1ccc(N(Cc2ccc(F)cc2)C(=O)c2ccccn2)cc1 [Compound 5e, N-(4-fluorobenzyl)-N-(4-methoxyphenyl)picolinamide]",6.86

# Same assay, conditions: Enterovirus B, CVB3, HeLa R19, read-out: EC50 HelaR19 Average
row,Structure (SMILES),EC50 [µM]
1,"COc1ccc(N(Cc2ccc(F)cc2)C(=O)c2ccccn2)cc1 [Compound 5e, N-(4-fluorobenzyl)-N-(4-methoxyphenyl)picolinamide]",8.87

# Same assay, conditions: Enterovirus B, CVB3, HeLa R19, read-out: Exp 1 EC50 HelaR19
row,Structure (SMILES),EC50 [µM]
1,"COc1ccc(N(Cc2ccc(F)cc2)C(=O)c2ccccn2)cc1 [Compound 5e, N-(4-fluorobenzyl)-N-(4-methoxyphenyl)picolinamide]",8.41

# Same assay, conditions: Enterovirus B, CVB3, HeLa R19, read-out: Exp 2 EC50 HelaR19
row,Structure (SMILES),EC50 [µM]
1,"COc1ccc(N(Cc2ccc(F)cc2)C(=O)c2ccccn2)cc1 [Compound 5e, N-(4-fluorobenzyl)-N-(4-methoxyphenyl)picolinamide]",9.32

# Tested on: PV-1
# Assay: microbe, parasite or virus in culture
# Type: cell-based, poliovirus 1
# Details: Enterovirus C, HeLa R19, read-out: EC50 PV-1
row,Structure (SMILES),EC50 [µM]
1,"COc1ccc(N(Cc2ccc(F)cc2)C(=O)c2ccccn2)cc1 [Compound 5e, N-(4-fluorobenzyl)-N-(4-methoxyphenyl)picolinamide]",> 30

# Tested on: CV-A24
# Assay: microbe, parasite or virus in culture
# Type: cell-based, coxsackievirus A24
# Details: Enterovirus C, CVA24, HeLa R19, read-out: EC50 CV-A24
row,Structure (SMILES),EC50 [µM]
1,"COc1ccc(N(Cc2ccc(F)cc2)C(=O)c2ccccn2)cc1 [Compound 5e, N-(4-fluorobenzyl)-N-(4-methoxyphenyl)picolinamide]",> 30

# Tested on: EV-D68
# Assay: microbe, parasite or virus in culture
# Type: cell-based, enterovirus D68
# Details: Enterovirus D, EVD68, HeLa R19, read-out: EC50 EV-D68
row,Structure (SMILES),EC50 [µM]
1,"COc1ccc(N(Cc2ccc(F)cc2)C(=O)c2ccccn2)cc1 [Compound 5e, N-(4-fluorobenzyl)-N-(4-methoxyphenyl)picolinamide]",10.5 ± 1.37

# Same assay, conditions: Enterovirus D, EVD68, HeLa R19, read-out: EC50 Exp1
row,Structure (SMILES),EC50 [µM]
1,"COc1ccc(N(Cc2ccc(F)cc2)C(=O)c2ccccn2)cc1 [Compound 5e, N-(4-fluorobenzyl)-N-(4-methoxyphenyl)picolinamide]",11.8

# Same assay, conditions: Enterovirus D, EVD68, HeLa R19, read-out: EC50 Exp2
row,Structure (SMILES),EC50 [µM]
1,"COc1ccc(N(Cc2ccc(F)cc2)C(=O)c2ccccn2)cc1 [Compound 5e, N-(4-fluorobenzyl)-N-(4-methoxyphenyl)picolinamide]",9.08

# Tested on: HRV-A2
# Assay: microbe, parasite or virus in culture
# Type: cell-based, human rhinovirus
# Details: Human rhinovirus sp., HRVA2, HeLa R19, read-out: EC50 HRV-A2
row,Structure (SMILES),EC50 [µM]
1,"COc1ccc(N(Cc2ccc(F)cc2)C(=O)c2ccccn2)cc1 [Compound 5e, N-(4-fluorobenzyl)-N-(4-methoxyphenyl)picolinamide]",> 30

# Tested on: HRV-B14
# Assay: microbe, parasite or virus in culture
# Type: cell-based, human rhinovirus
# Details: Human rhinovirus sp., HRVB14, HeLa R19, read-out: EC50 HRV-B14
row,Structure (SMILES),EC50 [µM]
1,"COc1ccc(N(Cc2ccc(F)cc2)C(=O)c2ccccn2)cc1 [Compound 5e, N-(4-fluorobenzyl)-N-(4-methoxyphenyl)picolinamide]",> 30

# Tested on: CV-B3
# Assay: microbe, parasite or virus in culture
# Type: cell-based, coxsackievirus B3
# Details: Enterovirus B, CVB3, HAP1
row,Structure (SMILES),EC50 [µM]
1,"COc1ccc(N(Cc2ccc(F)cc2)C(=O)c2ccccn2)cc1 [Compound 5e, N-(4-fluorobenzyl)-N-(4-methoxyphenyl)picolinamide]",15.8 ± 1.65

# Same assay, conditions: Enterovirus B, CVB3, HAP1, read-out: EC50 Hap1 Average
row,Structure (SMILES),EC50 [µM]
1,"COc1ccc(N(Cc2ccc(F)cc2)C(=O)c2ccccn2)cc1 [Compound 5e, N-(4-fluorobenzyl)-N-(4-methoxyphenyl)picolinamide]",15.9

# Same assay, conditions: Enterovirus B, CVB3, HAP1, read-out: Exp 1 EC50 Hap1
row,Structure (SMILES),EC50 [µM]
1,"COc1ccc(N(Cc2ccc(F)cc2)C(=O)c2ccccn2)cc1 [Compound 5e, N-(4-fluorobenzyl)-N-(4-methoxyphenyl)picolinamide]",17.5

# Same assay, conditions: Enterovirus B, CVB3, HAP1, read-out: Exp 2 EC50 Hap1
row,Structure (SMILES),EC50 [µM]
1,"COc1ccc(N(Cc2ccc(F)cc2)C(=O)c2ccccn2)cc1 [Compound 5e, N-(4-fluorobenzyl)-N-(4-methoxyphenyl)picolinamide]",14.2

# Tested on: CV-B3
# Assay: microbe, parasite or virus in culture
# Type: cell-based, coxsackievirus B3
# Details: Enterovirus B, CVB3, BGM, read-out: EC50 BGM Average
row,Structure (SMILES),EC50 [µM]
1,"COc1ccc(N(Cc2ccc(F)cc2)C(=O)c2ccccn2)cc1 [Compound 5e, N-(4-fluorobenzyl)-N-(4-methoxyphenyl)picolinamide]",17.8

# Same assay, conditions: Enterovirus B, CVB3, BGM, read-out: Exp 1 EC50 BGM
row,Structure (SMILES),EC50 [µM]
1,"COc1ccc(N(Cc2ccc(F)cc2)C(=O)c2ccccn2)cc1 [Compound 5e, N-(4-fluorobenzyl)-N-(4-methoxyphenyl)picolinamide]",16.7

# Same assay, conditions: Enterovirus B, CVB3, BGM, read-out: Exp 2 EC50 BGM
row,Structure (SMILES),EC50 [µM]
1,"COc1ccc(N(Cc2ccc(F)cc2)C(=O)c2ccccn2)cc1 [Compound 5e, N-(4-fluorobenzyl)-N-(4-methoxyphenyl)picolinamide]",18.9

# Tested on: HeLa R19 cells
# Assay: not given
# Details: not given
row,Structure (SMILES),cytotoxicity (in words)
1,"COc1ccc(N(Cc2ccc(F)cc2)C(=O)c2ccccn2)cc1 [Compound 5e, N-(4-fluorobenzyl)-N-(4-methoxyphenyl)picolinamide]",no cytotoxicity

# Tested on: not listed separately
# Assay: in vitro
# Details: human, CC50 Average
row,Structure (SMILES),CC50 [µM]
1,"COc1ccc(N(Cc2ccc(F)cc2)C(=O)c2ccccn2)cc1 [Compound 5e, N-(4-fluorobenzyl)-N-(4-methoxyphenyl)picolinamide]",> 30

# Same assay, conditions: human, CC50 HelaR19 Average
row,Structure (SMILES),CC50 [µM]
1,"COc1ccc(N(Cc2ccc(F)cc2)C(=O)c2ccccn2)cc1 [Compound 5e, N-(4-fluorobenzyl)-N-(4-methoxyphenyl)picolinamide]",> 100

# Same assay, conditions: human, Exp 1 CC50
row,Structure (SMILES),CC50 [µM]
1,"COc1ccc(N(Cc2ccc(F)cc2)C(=O)c2ccccn2)cc1 [Compound 5e, N-(4-fluorobenzyl)-N-(4-methoxyphenyl)picolinamide]",> 30

# Same assay, conditions: human, Exp 1 CC50 HelaR19
row,Structure (SMILES),CC50 [µM]
1,"COc1ccc(N(Cc2ccc(F)cc2)C(=O)c2ccccn2)cc1 [Compound 5e, N-(4-fluorobenzyl)-N-(4-methoxyphenyl)picolinamide]",> 100

# Same assay, conditions: human, Exp2 CC50
row,Structure (SMILES),CC50 [µM]
1,"COc1ccc(N(Cc2ccc(F)cc2)C(=O)c2ccccn2)cc1 [Compound 5e, N-(4-fluorobenzyl)-N-(4-methoxyphenyl)picolinamide]",> 30

# Same assay, conditions: human, Exp 2 CC50 HelaR19
row,Structure (SMILES),CC50 [µM]
1,"COc1ccc(N(Cc2ccc(F)cc2)C(=O)c2ccccn2)cc1 [Compound 5e, N-(4-fluorobenzyl)-N-(4-methoxyphenyl)picolinamide]",> 100

# Tested on: not listed separately
# Assay: in vitro
# Details: human, CC50
row,Structure (SMILES),CC50 [µM]
1,"COc1ccc(N(Cc2ccc(F)cc2)C(=O)c2ccccn2)cc1 [Compound 5e, N-(4-fluorobenzyl)-N-(4-methoxyphenyl)picolinamide]",> 100

# Same assay, conditions: human, CC50 Hap1 Average
row,Structure (SMILES),CC50 [µM]
1,"COc1ccc(N(Cc2ccc(F)cc2)C(=O)c2ccccn2)cc1 [Compound 5e, N-(4-fluorobenzyl)-N-(4-methoxyphenyl)picolinamide]",> 100

# Same assay, conditions: human, Exp 1 CC50 Hap1
row,Structure (SMILES),CC50 [µM]
1,"COc1ccc(N(Cc2ccc(F)cc2)C(=O)c2ccccn2)cc1 [Compound 5e, N-(4-fluorobenzyl)-N-(4-methoxyphenyl)picolinamide]",> 100

# Same assay, conditions: human, Exp 2 CC50 Hap1
row,Structure (SMILES),CC50 [µM]
1,"COc1ccc(N(Cc2ccc(F)cc2)C(=O)c2ccccn2)cc1 [Compound 5e, N-(4-fluorobenzyl)-N-(4-methoxyphenyl)picolinamide]",> 100

# Tested on: not listed separately
# Assay: in vitro
# Details: monkey, CC50
row,Structure (SMILES),CC50 [µM]
1,"COc1ccc(N(Cc2ccc(F)cc2)C(=O)c2ccccn2)cc1 [Compound 5e, N-(4-fluorobenzyl)-N-(4-methoxyphenyl)picolinamide]",> 100

# Same assay, conditions: monkey, CC50 BGM Average
row,Structure (SMILES),CC50 [µM]
1,"COc1ccc(N(Cc2ccc(F)cc2)C(=O)c2ccccn2)cc1 [Compound 5e, N-(4-fluorobenzyl)-N-(4-methoxyphenyl)picolinamide]",> 100

# Same assay, conditions: monkey, Exp 1 CC50 BGM
row,Structure (SMILES),CC50 [µM]
1,"COc1ccc(N(Cc2ccc(F)cc2)C(=O)c2ccccn2)cc1 [Compound 5e, N-(4-fluorobenzyl)-N-(4-methoxyphenyl)picolinamide]",> 100

# Same assay, conditions: monkey, Exp 2 CC50 BGM
row,Structure (SMILES),CC50 [µM]
1,"COc1ccc(N(Cc2ccc(F)cc2)C(=O)c2ccccn2)cc1 [Compound 5e, N-(4-fluorobenzyl)-N-(4-methoxyphenyl)picolinamide]",> 100
